Laboratory results from US9458179B2, “Quinuclidine, 1-azabicyclo[2.2.1]heptane, 1-azabicyclo [3.2.1]octane, and 1-azabicyclo[3.2.2]nonane compounds as alpha-7 nicotinic acetylcholine receptor ligands” (BRISTOL-MYERS SQUIBB COMPANY, priority 2012, dated 2016).

Biological target: T1, α-7 nicotinic ACh receptor ion channel (Rattus norvegicus, UniProt Q05941)
T1 construct: expressed in transfected cells
Assay: Ca2+-sensitive fluorescence-based FLIPR assay of α7 nicotinic receptor channel function (agonist activity)
Assay type: cell-based
Settings: FLIPR α7-HI (EC50, nM), HEK 293 cells, Ca2+ flux
Method: II) A Ca^2+-Sensitive, Fluorescence-Based Assay α-7 for Nicotinic Acetylcholine Receptor Channel Function in Mammalian Cells (“FLIPR”).
Lead compounds are evaluated for agonist activity at α-7, α3β4, α4αβ2, and α1β1δ1ε sub-types of nicotinic ACh receptor ion channels expressed in mammalian HEK 293 cells. Agonist potency and efficacy values are determined from kinetic fluorescence Ca^2+ influx measurements made using a 384 well FLIPR (Fluorescence Image Plate Reader). […] In this assay, channel expressing HEK cell lines seeded in 384 well assay plates are loaded with a membrane permeant fluorescent Ca^2+ indicator dye, whose 510 nm green emission signal increases in response to elevation of intracellular Ca^2+ concentration. The basal fluorescence from the cells is monitored in real time, followed by the acute addition of test compounds.
Reagents: The acetomethoxy (AM) ester of the Ca^2+ indicator dye Fluo-4 was obtained from InVitrogen, (Carlsbad, Calif.). Acetylcholine and all buffer constituents were purchased from Sigma Chemical Company, St. Louis, Mo. G418 and Minimal Essential Medium were purchased from InVitrogen Life Technologies, Carlsbad, Calif. Fetal bovine serum was purchased from (InVitrogen, Carlsbad, Calif.).
HEK-293 cells were grown in Minimal Essential Medium containing 10% (v/v) fetal bovine serum at 37° C. in a 5% CO2 incubator. HEK-293 cells stably expressing the ion channels were grown in the same medium with the addition of 500 μg/ml G418.
HEK-293 cells expressing the ion channels of interest were plated in 384 well, black-walled, clear-bottomed, poly-D-lysine coated plates at a density of ˜20,000 cells/well in 20 μl of Minimal Essential Medium containing 10% (v/v) fetal bovine serum and incubated for 2 days at 29° C. in a 5% CO2 incubator. Prior to assay, cells were loaded with the Fluo-4 AM ester. […] Dye loading was allowed to proceed for 90 minutes at room temperature at which time the dye loading solution was removed and replaced with 40 μl/well of Hanks buffer. Cells loaded with dye were loaded onto a FLIPR384 (Molecular Devices, Sunnyvale, Calif.). […] Emission was filtered using a 540+/−30 nm bandpass filter. For evaluation of the effects of test compounds using the Ca^2+ flux assay, compounds to be tested were provided in assay ready plates. For nicotinic receptor ion channel expressing cells, the assay was initiated by the addition of 20 μl/well of Hanks buffer containing test compounds. For all assays, data were collected at 1 Hz for 10 seconds (baseline), at which time the compound containing stimulus buffers are added, and further measurements collected at 0.33 Hz for 3 min.
The statistical robustness of the nicotinic receptor Ca^2+ flux assays is determined from blanks and totals wells. […] The raw fluorescence units data files generated on the FLIPR plate reader are automatically exported and processed by in-house data analysis tools. The reduced percent activation data for each concentration of test compound are fit using MathIQ fitting engine (ID Business Solutions Limited, Surrey, UK). Data were analyzed by fitting maximum amplitudes of change in fluorescence, for Ca^2+ flux for a given condition of test compound. […] Test compound efficacy values (Ymax values) are expressed relative to a maximal response to acetylcholine in the total wells.

T1 sequence (Q05941 23-502): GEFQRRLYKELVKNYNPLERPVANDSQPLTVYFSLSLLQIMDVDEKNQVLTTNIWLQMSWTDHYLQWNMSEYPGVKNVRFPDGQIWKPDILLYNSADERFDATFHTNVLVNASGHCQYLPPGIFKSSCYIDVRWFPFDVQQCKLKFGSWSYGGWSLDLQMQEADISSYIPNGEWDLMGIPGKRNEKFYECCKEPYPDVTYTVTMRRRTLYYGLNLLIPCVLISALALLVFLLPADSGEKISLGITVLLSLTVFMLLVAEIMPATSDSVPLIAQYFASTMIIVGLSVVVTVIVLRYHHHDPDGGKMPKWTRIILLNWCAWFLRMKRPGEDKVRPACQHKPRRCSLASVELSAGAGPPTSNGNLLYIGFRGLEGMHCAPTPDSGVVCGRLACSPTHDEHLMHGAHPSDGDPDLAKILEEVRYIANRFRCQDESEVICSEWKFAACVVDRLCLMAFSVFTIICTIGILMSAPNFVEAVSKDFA

SMILES | EC50 (Table 1, activity class) [nM] | EC50 (Table 4, activity class) [nM]
CN(C)c1ccc2nc(NC3=NCC4(CN5CCC4CC5)N3)sc2n1 (stereo not drawn) [Example 48, N˜2˜-(1′,5′-Dihydrospiro[4-azabicyclo[2.2.2]octane-2,4′-imidazol]-2′-yl)-N˜5˜,N˜5˜-dimethyl[1,3]thiazolo[5,4-b]pyridine-2,5-diamine] | 1000 to 100000 | 
Cc1ccc2nc(NC3=NCC4(CN5CCC4CC5)N3)oc2n1 (stereo not drawn) [Example 62, N-(3,5-Dihydro-1′-azaspiro[imidazole-4,3′-bicyclo[2.2.2]octane]-2-yl)-5-methyloxazolo[5,4-b]pyridin-2-amine] | 100 to 1000 | 
Clc1ccc2c(NC3=NCC4(CN5CCC4CC5)N3)ncnn12 (stereo not drawn) [Example 65, N-(7-Chloropyrrolo[1,2-f][1,2,4]triazin-4-yl)-3,5-dihydro-1′-azaspiro[imidazole-4,3′-bicyclo[2.2.2]octan]-2-amine] | 100 to 1000 | 
COc1ncc2nc(NC3=NCC4(CN5CCC4CC5)N3)sc2n1 (stereo not drawn) [Example 19, N-(5-Methoxy[1,3]thiazolo[5,4-d]pyrimidin-2-yl)-1′,5′-dihydrospiro[4-azabicyclo[2.2.2]octane-2,4′-imidazol]-2′-amine] | 1000 to 100000 | 
CN1C(Nc2ncc3ccccc3n2)=NCC12CN1CCC2CC1 (stereo not drawn) [Example 27] | 1000 to 100000 | 
COc1ccc2nc(/N=C3\OC4(CN5CCC4CC5)CN3C)sc2c1 (stereo not drawn) [Example 89, (Z)-6-Methoxy-N-(3-methyl-1′-azaspiro[oxazolidine-5,3′-bicyclo[2.2.2]octane]-2-ylidene)benzo[d]thiazol-2-amine] |  | > 1e+06
